# In patent US3980794A, “Method for promoting growth of poultry with 3-(5-nitro-2-imidazolyl)pyrazoles” (Eli Lilly and Company, priority 1975, dated 1976):
# Read-outs that look alike come from different tables or passages of the source.
# Key:
# [1] = system: Treponema hyodysenteriae; test: In vitro activity against Treponema hyodysenteriae (Experiment 8); type: cell-based; conditions: Brachyspira hyodysenteriae; repeat test, doubling dilutions 100 to 0.048 mcg./ml.; read-out: minimum inhibitory concentration (MIC)
# Method: A number of representative compounds, namely, 1, 5, 6, 7, 12, 13D, 14, and 18, were tested for their in vitro activity against Treponema hyodysenteriae. The treponema were propagated on blood agar plates. Each plate which was prepared contained 20 ml. of trypticase soy agar (Baltimore Biological Laboratory [BBL]) with 5.0 g./l. of yeast extract (Difco) and 5 percent sterile defibrinated horse blood. The plates were sterile plastic 15 × 100 mm. petri plates. Incubation was carried out at 37°C. for 4 days under anaerobic conditions using the BBL Gas Pak system.
# The concentrations of test compounds in this initial test were prepared in dilutions ranging from 2000 mcg./ml. to 7.8 mcg./ml. The test procedure was carried out in the following manner. Five ml. of a twenty-fold concentration in tryptose broth (Difco) of each filter-sterilized test compound dilution was mixed in a series of flasks containing 90 ml. of melted trypticase soy agar with yeast extract. Five ml. of horse blood was then added per flask. The contents of these flasks were then used to prepare a series of blood agar plates in doubling decreasing dilutions ranging from 100 mcg./ml. to 0.39 mcg./ml.
# The treponema for inoculation of these plates were obtained by adding 3.0 ml. of sterile tryptose broth to the surface of a plate on which the treponema had been propagated. […]
# [2] = system: Pasteurella multocida and Pasteurella hemolytica; test: In vivo activity against pasteurellosis in calves (Experiment 10)
# Method: The in vivo activity of compound 1 against pasteurellosis in calves was determined in the following manner. Twelve calves weighing approximately 180 pounds each were obtained from a commercial source and were brought to the research facility where they were weighed individually and identified by ear tag. The calves were divided into two groups of six calves each, and two hundred thousand ascaris ova were administered to each calf seven days prior to the pasteurella challenge. […] The compound was administered orally in two equal doses of 2000 mg. each, using capsules containing 500 mg. of compound each. The actual dosage of the test compound ranged from about 45 to about 55 mg. per kilo per head per day. The treatment was initiated one day prior to the pasteurella challenge and was continued daily for a total of seven days. […] The pasteurella challenge was prepared using three isolates of Pasteurella multocida and three isolates of Pasteurella hemolytica, all of bovine origin. The isolates were grown in tryptose culture for about 18 hours and then mixed in equal parts in a challenge cocktail. Approximately 0.1 ml. was used to aerosol-expose each calf. This exposure was carried out by placing a plastic bag over the head of each calf and running the aerosol into the bag. The pasteurella challenge was timed to coincide with the period of mechanical injury to the lung tissue caused by the […] larvae migration. […] All the calves were sacrificed on the tenth day post-pasteurella challenge, and the extent of pneumonic lesions in the lung tissues noted. Thus, after the calves were sacrificed, the lungs were removed from each calf and examined for lesions grossly. In addition, attempts were made to re-isolate pasteurella from the pneumonic lung tissue.
# [3] = system: Pseudomonas sp.; test: In vitro activity against fish bacterial pathogens, tube dilution (Experiment 13); type: cell-based; conditions: tryptose broth, overnight, 37°C., read-out: minimum inhibitory concentration (MIC), Pseudomonas
# [4] = system: Salmonella choleraesuis; test: In vivo activity against Salmonella choleraesuis in pigs (Experiment 14)
# Method: The in vivo activity of compound 1 against Salmonella choleraesuis was determined in the following manner.
# Twenty-four healthy feeder pigs were purchased from a local farm and brought to the research facility where they were weighed individually and identified by ear tag. Four groups of six pigs each were formed so that the average pig weight per group was similar.
# Two groups of pigs were given compound 1 at a level of 50 g./ton in the feed. The remaining two groups of pigs were fed the same basal ration without compound 1. Twenty-four hours after initiation of the compound 1 feed treatment, all four groups were challenged orally using 10 ml. of a broth culture of Salmonella choleraesuis.
# The pigs were weighed weekly throughout the duration of the experiment and on the 28th day postsalmonella challenge, each surviving pig was killed and the salmonella-caused lesions were recorded. Chart 14, which follows, contains a summary of the results from the trial.
# [5] = system: Treponema hyodysenteriae
# [6] = 50 g./ton continuous, total of both replicates
# [7] = 100 g./ton in feed, all medicated pigs
structure (smiles),measurement,setting,value
"Cn1nc(-c2ncc([N+](=O)[O-])n2C)c(C#N)c1N [Compound 1, 5-Amino-1-methyl-3-(1-methyl-5-nitro-2-imidazolyl)pyrazole-4-carbonitrile]",MIC,[1],0.097 µg/mL
same,pasteurella colonies in lungs of a third treated calf,[2]; at necropsy,only three pasteurella colonies
same,calves with moderate number of pasteurella colonies in lungs,"[2]; at necropsy, six calves",Another treated calf
same,calves with numerous colonies of pasteurella in lungs,"[2]; at necropsy, six calves",One of the treated calves
same,calves yielding no pasteurella from the lung tissue,"[2]; at necropsy, six calves",Three of the treated calves
same,treatment response (control of lung lesions and reisolation of pasteurella),"[2]; oral, about 45 to about 55 mg. per kilo per day",All the calves treated with compound 1 showed a treatment response
same,body temperature,"[2]; oral, about 45 to about 55 mg. per kilo per head per day, versus infected control",considerably lower
same,calves with moderate pneumonic lung lesion,"[2]; oral, tenth day post-challenge, six calves",A single treated calf
same,MIC,[3],6.25 µg/mL
same,mortality,[4]; 50 g./ton continuous,prevented mortality
same,Mean Pig Wt.,"[4]; 50 g./ton continuous, Avg., day 0",30.0 Lbs.
same,Mean Pig Wt.,"[4]; 50 g./ton continuous, Avg., day 7",31.8 Lbs.
same,Mean Pig Wt.,"[4]; 50 g./ton continuous, Avg., day 14",33.5 Lbs.
same,Mean Pig Wt.,"[4]; 50 g./ton continuous, Avg., day 21",39.4 Lbs.
same,Mean Pig Wt.,"[4]; 50 g./ton continuous, Avg., day 28",45.5 Lbs.
same,Lesions at Necropsy,"[4]; 50 g./ton continuous, Rep. 1",2/6
same,No. Dead/No. in Grp.,"[4]; 50 g./ton continuous, Rep. 1",0/6
same,Mean Pig Wt.,"[4]; 50 g./ton continuous, Rep. 1, day 0",30.2 Lbs.
same,Mean Pig Wt.,"[4]; 50 g./ton continuous, Rep. 1, day 7",32.5 Lbs.
same,Mean Pig Wt.,"[4]; 50 g./ton continuous, Rep. 1, day 14",33.8 Lbs.
same,Mean Pig Wt.,"[4]; 50 g./ton continuous, Rep. 1, day 21",38.8 Lbs.
same,Mean Pig Wt.,"[4]; 50 g./ton continuous, Rep. 1, day 28",44.2 Lbs.
same,Lesions at Necropsy,"[4]; 50 g./ton continuous, Rep. 2",1/6
same,No. Dead/No. in Grp.,"[4]; 50 g./ton continuous, Rep. 2",0/6
same,Mean Pig Wt.,"[4]; 50 g./ton continuous, Rep. 2, day 0",29.7 Lbs.
same,Mean Pig Wt.,"[4]; 50 g./ton continuous, Rep. 2, day 7",31.0 Lbs.
same,Mean Pig Wt.,"[4]; 50 g./ton continuous, Rep. 2, day 14",33.2 Lbs.
same,Mean Pig Wt.,"[4]; 50 g./ton continuous, Rep. 2, day 21",40.0 Lbs.
same,Mean Pig Wt.,"[4]; 50 g./ton continuous, Rep. 2, day 28",46.7 Lbs.
same,improved weight gain over that of infected pigs,"[4]; 50 g./ton continuous, average",4.3 lbs./pig
same,Lesions at Necropsy,[4]; [6],3/12
same,No. Dead/No. in Grp.,[4]; [6],0/12
same,control of Salmonella choleraesuis in swine,[4]; compound 1 in the feed about 50 g./ton,effective in the control of Salmonella choleraesuis in swine
same,blood and/or mucus in the colon at necropsy,[5]; 100 g./ton in feed,not found in the colon of any pig
same,Days with Blood and Mucus in Pen,"[5]; 100 g./ton in feed, Group 1",0
same,Days with Diarrhea in Pen,"[5]; 100 g./ton in feed, Group 1",0
same,Initial Wt. (at time of challenge),"[5]; 100 g./ton in feed, Group 1",35.3
same,Mortality (No. Died),"[5]; 100 g./ton in feed, Group 1",0
same,"Avg. Wt. of Pigs, Survivors","[5]; 100 g./ton in feed, Group 1, day 7",43.3
same,"Avg. Wt. of Pigs, Survivors","[5]; 100 g./ton in feed, Group 1, day 14",51.0
same,"Avg. Wt. of Pigs, Survivors","[5]; 100 g./ton in feed, Group 1, day 19",57.3
same,Avg. Gain (Survivors) From Day Of Challenge,"[5]; 100 g./ton in feed, Group 1, killed 19 days post-challenge",22.0 lb.
same,Days with Blood and Mucus in Pen,"[5]; 100 g./ton in feed, Group 2",0
same,Days with Diarrhea in Pen,"[5]; 100 g./ton in feed, Group 2",0
same,Initial Wt. (at time of challenge),"[5]; 100 g./ton in feed, Group 2",35.3
same,Mortality (No. Died),"[5]; 100 g./ton in feed, Group 2",0
same,"Avg. Wt. of Pigs, Survivors","[5]; 100 g./ton in feed, Group 2, day 7",42.1
same,"Avg. Wt. of Pigs, Survivors","[5]; 100 g./ton in feed, Group 2, day 14",50.0
same,"Avg. Wt. of Pigs, Survivors","[5]; 100 g./ton in feed, Group 2, day 21",59.7
same,"Avg. Wt. of Pigs, Survivors","[5]; 100 g./ton in feed, Group 2, day 28",71.2
same,Avg. Gain (Survivors) From Day Of Challenge,"[5]; 100 g./ton in feed, Group 2, killed 28 days post-challenge",35.9 lb.
same,deaths during the trial,[5]; [7],None of the pigs receiving the test compound died
same,diarrhea,[5]; [7],not detected
same,mucus and blood in feces,"[5]; 100 g./ton in feed, whole trial",not observed at any time during the trial
same,control of induced swine dysentery,"[5]; 100 g./ton in feed, overall conclusion",highly effective
same,control of Treponema hyodysenteriae in swine,[5]; compound 1 in the feed about 100 g./ton,effective in the control of Treponema hyodysenteriae in swine
same,slight areas of hemorrhage in the colon and/or stomach,"[5]; pig, in vivo",seen in most of the pigs
same,recurrence of swine dysentery,"[5]; replicate 2, unmedicated ration day 17 until day 28",not observed
